According to US8691528B2, “Cell penetrating peptide” (Mitsubishi Tanabe Pharma Corporation, priority 2005, dated 2014):
Entries after “also recorded” stand apart in the source; their conditions may differ.

Tests used:
Assay type in all cases: cell-based
[1] = test system: CHO cells; assay: Test of translocation of fluorescence-labeled peptides into CHO cells (FACS and confocal microscopic analysis); conditions: for contribution of the alanine-substituted amino acid to the intracellular translocation: comprehensive alanine substitution on the basis of KSH1-1
Protocol: Each peptide solution, adjusted to 1 mM, was diluted with a medium to three levels, 100 μM, 50 μM, and 25 μM, and added to cells. Three kinds of cells were used: CHO cells, HeLa cells, and Jurkat cells. After each peptide solution was added, the cells were incubated for 1 hour. After the cells were washed with PBS three times, 100 μL of 0.25% trypsin-1 mM EDTA solution was added, and trypsinization was performed at room temperature for 5 minutes. After 400 μL of PBS (10% FCS) was added to stop the trypsinization, the cells were washed with 1 mL of HBSS three times. After the washing, the cells were suspended in 500 μL of PBS (10% FCS) and subjected to flowcytometry (hereinafter, FACS) analysis using FACS Calibur (Becton Dickinson).
Each peptide was synthesized, fluorescently labeled, purified and dissolved in the same manner as Example 1-2, a test of translocation into CHO cells was performed, and an evaluation was performed by confocal microscopic analysis and FACS. FACS analysis was performed in the same manner as Example 1-3. For the KSH1 peptide and modified PTD sequences, i.e., KSH1-1 to KSH1-9 peptides (SEQ ID NOS:1 to 9 in the sequence listing), fluorescence intensities determined by FACS analysis are shown in FIG. 6. The peptide addition concentrations were 50 μM, 25 μM, 12.5 μM and 6.5 μM.
To determine which amino acids are important to the intracellular translocation, comprehensive alanine substitution was performed on the basis of KSH1-1 to design KSH1-11 (SEQ ID NO:11 in the sequence listing) to KSH1-23 (SEQ ID NO:22 in the sequence listing) and KSH1-35 (SEQ ID NO:32 in the sequence listing) (FIG. 7). Each peptide was synthesized, fluorescently labeled, purified and dissolved in the same manner as Example 1-2, a test of translocation into CHO cells was performed, and an evaluation was performed by confocal microscopic analysis and FACS. FACS analysis was performed in the same manner as Example 1-3. For KSH1 and modified PTD sequences, i.e., KSH11-11 to 23 and KSH1-35, fluorescence intensities determined by FACS analysis are shown in FIG. 8. The peptide addition concentrations were 50 μM, 25 μM, 12.5 μM and 6.5 μM.
(§1) Each peptide was synthesized, fluorescently labeled, purified and dissolved in the same manner as Example 1-2, a test of translocation into CHO cells was performed, and an evaluation was performed by confocal microscopic analysis and FACS analysis. FACS analysis was performed in the same manner as Example 1-3. For KSH1 and modified PTD sequences, i.e., KSH11-24 to 1-26 and KSH1-28 to 1-30, fluorescence intensities determined by FACS analysis are shown in FIG. 10. The peptide addition concentrations were 50 μM, 25 μM, 12.5 μM and 6.5 μM.
as §1, with “KSH1-27, KSH1-33, KSH1-34” for “KSH11-24 to 1-26”, “KSH1-36,” for “KSH1-28 to 1-30,”, “12.” for “10.”
Each peptide was synthesized, fluorescently labeled, purified and dissolved in the same manner as Example 1-2, and an intracellular translocation test in CHO cells was performed by FACS analysis. Used for positive control were a PTD sequence derived from HIV TAT ([…] in the sequence listing) and the KSH1 peptide; used for negative control was a peptide sequence lacking intracellular transferability (SEQ ID NO:57 in the sequence listing).

[2] = test system: HeLa cells; assay: Confocal microscopic analysis of intracellular translocation of synthetic peptides in HeLa cells; conditions: confocal microscopic analysis
Protocol: (§2) Three kinds of cells were used for incorporating the peptides: CHO cells (ATCC NO. CCL-61), HeLa cells, and Jurkat cells. 10^4 CHO cells and HeLa cells and 10^5 Jurkat cells were separately inoculated to a 96-well plate, and cultured for 2 or 3 days. Subsequently, when the cells became confluent, each peptide solution was added to each type of cell, and the cells were incubated for 1 hour. After each type of cell was washed with PBS three times, 100 μL of 0.25% trypsin-1 mM EDTA solution was added, and trypsinization was performed at room temperature for 5 minutes. After 400 μL of PBS (10% FCS) was added to neutralize the trypsin, the cells were washed with 1 mL of HBSS (Hanks' Balanced Salt Solution/produced by Invitrogen) three times. After the washing, the cells were suspended in 50 μL of HBSS and analyzed using a confocal microscope. Measurements and analysis were performed using a confocal differential interference laser microscope system (Bio-Rad, Radience2100/Green He-Ne, 488 nm, microscope: Nikon, ECLIPSE E600).
In HeLa cells as with CHO cells, intracellular translocation experiments of synthetic peptides of modified PTD sequences were performed by confocal microscopic analysis.

[3] = test system: Jurkat cells; assay: Confocal microscopic analysis of intracellular translocation of synthetic peptides in Jurkat cells
Protocol: as §2
In Jurkat cells as well, intracellular translocation experiments of synthetic peptides of modified PTD sequences were performed by confocal microscopic analysis.

[4] = test system: CHO cells, HeLa cells, and Jurkat cells; assay: Confocal microscopic analysis of intracellular translocation of fluorescence-labeled peptides; conditions: for capability of intracellular translocation compared with KSH2: FITC-labeled peptides in CHO, HeLa, and Jurkat cells; for intracellular translocation compared with KSH2: FITC-labeled peptide
Excerpt: With the PTD derived from HIV TAT protein shown by SEQ ID NO:50 in the sequence listing as the positive control (in FIG. 1 to FIG. 3, denoted by “Positive” or “TAT”), and a mutant of the TAT-derived PTD shown by SEQ ID NO:51 in the sequence listing, reported by Ulo Langel et al. (Cell-Penetrating Peptides: Processes and Applications, Series: Pharmacology and Toxicology: Basic and Clinical Aspects Volume:3, 2002), as the negative control (in FIG. 1, denoted by “Negative”), the peptides of the 11 sequences selected in Example 1-1 were evaluated.
The peptides of the 11 sequences selected in Example 1-1 were synthesized by the solid phase method, and fluorescently labeled by coupling 5,6-Carboxyfluorescein to the N-terminus of each peptide. Furthermore, the peptides were purified by HPLC to obtain a purity of 70% or more. Subsequently, each fluorescently labeled peptide was dissolved in 10% Dimethyl Sulfoxide (DMSO) to obtain 1 mM (hereinafter referred to as peptide solution).
as §2
Of the novel PTD sequences found in Example 5, the KSH2 peptide is highly capable of translocating eGFP into cells; an attempt was made to modify the KSH2 peptide. The KSH2-1 to KSH2-4 peptides (SEQ ID NOS:44 to 47 in the sequence listing) were synthesized, fluorescently labeled, purified and dissolved in the same manner as Example 1-2, a test of translocation into CHO cells was performed, and confocal microscopic analysis was performed.
First, two cases were examined: two cysteines were substituted with alanine (KSH2-1) or with tryptophan (KSH2-2). FITC-labeled peptides were synthesized, and their intracellular translocation efficiencies were examined using CHO, HeLa, and Jurkat cells (FIG. 21, the peptide addition concentration was 50 μM, 25 μM or 12.5 μM).

[5] = 50 μM, 25 μM, 12.5 μM and 6.5 μM

| Substance | intracellular translocation compared with KSH1 (in words) [1, 5] | intracellular translocation in HeLa cells (modified peptides with better translocation) [2] | intracellular translocation in Jurkat cells as compared to that of SEQ ID NO:37 [3] | further results |
| --- | --- | --- | --- | --- |
| KSH1-9: modified KSH1 with the number of tryptophans increased to 4 (RLWMRWYSPWTRRWG; Designed peptide to act as PTD(Protein Transduction Domain)) | the same tendency as KSH1-8; also recorded: clearly accentuated intracellular translocation | better intracellular translocation | better intracellular translocation | – |
| KSH1-20: alanine substitution form of KSH1-1 (RLWMRWYSPATRRYG; Designed peptide to act as PTD(Protein Transduction Domain)) | – | better intracellular translocation | better intracellular translocation | contribution of the alanine-substituted amino acid to the intracellular translocation [1]: minor contribution |
| KSH1-18: alanine substitution form of KSH1-1 (8th serine) (RLWMRWYAPTTRRYG; Designed peptide to act as PTD(Protein Transduction Domain)) | clearly accentuated intracellular translocation | better intracellular translocation | better intracellular translocation | – |
| KSH1-33: 13th arginine substituted with alanine and 10th threonine substituted with arginine (RLWMRWYSPRTRAYG; Designed peptide to act as PTD(Protein Transduction Domain)) | clearly accentuated intracellular translocation | better intracellular translocation | better intracellular translocation | intracellular translocation compared with KSH1-1 (in words) [1, 5]: nearly equivalent or more than KSH1-1 |
| KSH2-3: KSH2 with one of the two cysteines substituted with alanine (WKARRQCFRVLHHWN; Designed peptide to act as PTD(Protein Transduction Domain)) | – | – | – | capability of intracellular translocation compared with KSH2 [4]: accentuated |
| KSH2-1: KSH2 with two cysteines substituted with alanine (WKARRQAFRVLHHWN; Designed peptide to act as PTD(Protein Transduction Domain)) | – | – | – | intracellular translocation compared with KSH2 ([4]; 25 μM): remarkably decreased intracellular translocation; intracellular translocation compared with KSH2 ([4]; 50 μM): higher intracellular translocation than KSH2 |
| KSH2-4: KSH2 with one of the two cysteines substituted with alanine (WKCRRQAFRVLHHWN; Designed peptide to act as PTD(Protein Transduction Domain)) | – | – | – | capability of intracellular translocation compared with KSH2 [4]: accentuated |
| KSH1-8: tryptophan cluster form with lysine substituted with arginine (RLWMRWYSPWTRRYG; Designed peptide to act as PTD(Protein Transduction Domain)) | clearly accentuated intracellular translocation | better intracellular translocation | better intracellular translocation | intracellular translocation (in words) ([1]; at 25 μM or less): accentuated; intracellular translocation (in words) ([1]; at 50 μM): decreased |
| KSH1-21: alanine substitution form of KSH1-1 (RLWMRWYSPTARRYG; Designed peptide to act as PTD(Protein Transduction Domain)) | – | – | better intracellular translocation | – |
| KSH1-16: alanine substitution form of KSH1-1 (RLWMRAYSPTTRRYG; Designed peptide to act as PTD(Protein Transduction Domain)) | – | – | – | intracellular translocation in HeLa cells compared with CHO cells [2]: slightly higher |
| KSH1-12: alanine substitution form of KSH1-1 (RAWMRWYSPTTRRYG; Designed peptide to act as PTD(Protein Transduction Domain)) | – | – | better intracellular translocation | contribution of the alanine-substituted amino acid to the intracellular translocation [1]: minor contribution |
| KSH1-14: alanine substitution form of KSH1-1 (RLWARWYSPTTRRYG; Designed peptide to act as PTD(Protein Transduction Domain)) | – | – | better intracellular translocation | contribution of the alanine-substituted amino acid to the intracellular translocation [1]: minor contribution |
| KSH2-2: KSH2 with two cysteines substituted with tryptophan (WKWRRQWFRVLHHWN; Designed peptide to act as PTD(Protein Transduction Domain)) | – | – | – | intracellular translocation compared with KSH2 ([4]; 12.5 μM): higher intracellular translocation efficiency than KSH2; intracellular translocation compared with KSH2 ([4]; 25 μM): higher intracellular translocation efficiency than KSH2; intracellular translocation compared with KSH2 ([4]; 50 μM): higher intracellular translocation than KSH2 |
